Results from PMC9963438, “Emerging Effects of Resveratrol Derivatives in Cells Involved in Oral Wound Healing: A Preliminary Study” (International Journal of Molecular Sciences, 2023).

What was measured:
HGFs [1] = assay: LDH release assay on HGFs; type: cell-based, human; conditions: 24 h
Description: Lactate Dehydrogenase (LDH) activity in HUVECs, HGFs, and HOBs was measured with a cytotoxicity detection kit LDH (Roche, Basilea, Swiss). Firstly, 5000 cells/well (HUVECs, HGFs and HOBs) were seeded in 96-well plates and treated with 1d and 1h (5, 10, 20 µM). After 24 h, the assay was performed according to manufacturer instructions. LDH release was calculated as a percentage with respect to the control (CTRL).

HGFs [2] = assay: MTT viability/proliferation on HGFs; type: cell-based, human; conditions: vs CTRL and RSV 10 µM
Description: For the initial screening, HGFs were seeded at a density of 8000 cells/well into a 96-well culture plate and cultured for 24 h. […] The DMSO final concentration was established at 0.1% in all tested samples.
(§1) To measure HUVECs, HGFs, and HOBs metabolic activity as an indicator of cell viability and proliferation, an MTT assay (Sigma Aldrich, Milan, Italy) was performed. In brief, 8000 cells/well (HUVECs, HGFs and HOBs) were seeded in 96-well plates and after 24 h cells were treated with increasing concentrations of 1d and 1h for 48 h and 72 h. Then, the medium was replaced by a fresh one supplemented with […] MTT and probed for 4 h at 37 °C. The medium containing MTT was discarded and replaced by an equal volume of DMSO to dissolve formazan crystals. The absorbance of the solution was read at a 540 nm wavelength by a microplate reader (Multiskan GO, Thermo Scientific, MA, USA). Values obtained without cells were considered as background. Viability and proliferation were normalized to control cells treated with DMSO 0.1%.

HOBs [3] = assay: MTT viability/proliferation on HOBs; type: cell-based, human; conditions: vs CTRL and RSV 10 µM
Description: as §1

HUVECs = assay: Toluidine blue staining, morphology and confluence of HUVECs; type: cell-based, human; conditions: 5 µM; for HUVECs confluence: 48 h, compared to CTRL and RSV; for HUVECs growth / confluence: 72 h, compared to controls
Description: (§2) The influence of 1d and 1h was evaluated on cells density and morphology by toluidine-blue staining. A total of 2 × 10^4 cells/well were cultured in 24-well plates and were incubated at 37 °C and 5% CO2 with tested compounds at 5 µM. After 48 and 72 h, adherent cells were fixed with 70% cold ethanol and stained with 1% toluidine blue and 1% borax (Sigma Aldrich, St. Louis, MO, USA). Cells were then observed by an inverted microscope connected with a camera at 40×, 100×, and 200× magnifications (Leica, Wild Heer-brugg, Wetzlar, Germany).

HGFs [4] = assay: Toluidine blue staining, morphology and confluence of HGFs; type: cell-based, human; conditions: for HGFs confluence: compared to controls
Description: as §2

[5] = tested on: Alkaline phosphatase (ALP) activity in HOBs; assay: ALP activity assay in HOBs; type: cell-based, human; conditions: 5 µM, 7 days, compared to CTRL and RSV; not statistically significant
Description: Alkaline phosphatase (ALP) activity was evaluated by ALP assay kit colorimetric AB83369 (Abcam Inc., Cambridge, UK). HOBs were seeded at a density of 5 × 10^4 cells/well and treated with 1d and 1h. After 7 days of culture, cell lysate was obtained, and ALP levels were measured according to the manufacturer instructions. The absorbance was measured at 450 nm by a microplate reader (Synergy H1 Hybrid BioTek Instruments, Winooski, VT, USA).

HOBs [6] = assay: Alizarin red staining and calcium deposition (CPC) in HOBs; type: cell-based, human; conditions: 5 µM, 14 days
Description: To evaluate mineralization qualitatively, Alizarin red staining was performed. 5 × 10^4/well HOBs were seeded and treated with 1d and 1h. After 14 days of culture, HOBs were rinsed three times with PBS and fixed with a glutaraldehyde solution (2.5%) for 2 h. An Alizarin staining solution (Sigma-Aldrich) was then added for 1h at room temperature and the excess dye was removed using deionized water. The presence of calcium deposition was qualitatively evaluated by observing the intensity of the red color. Images were taken by a stereomicroscope connected with a camera at a magnification of 12× (Leica, Wetzlar, Germany). Furthermore, to quantify calcium deposition, Cetylpyridinium Chloride (CPC) was used. Upon a washing with deionized water, cells were treated with 1 mL of 10% CPC solution (Sigma-Aldrich) for 1 h to chelate calcium ions. After incubation, the absorbance was read at 540 nm by a microplate reader (Synergy H1 Hybrid BioTek Instruments) and normalized with the cell number.

eNOS mRNA in HUVECs = assay: RT-qPCR of eNOS in HUVECs; type: cell-based, human
Description: (§3) Total RNA was isolated using Trifast reagent (EuroClone) according to the manufacturer instructions from 3 × 10^5 cells/well treated with increasing concentrations of 1d and 1h for 48 h and 72 h. Complementary DNA (cDNA) was obtained using GoTaq® 2 Step RT-qPCR Kit (Promega, Madison, WI, USA) in accordance with the manufacturer’s instructions. RT-qPCR was carried out using SYBR Green (Promega) on the Quant Studio 7 Pro Real-Time PCR System (ThermoFisher, Waltham, MA, USA). The results were normalized to glyceraldehyde 3-phoshate dehydrogenase (GAPDH) for HUVECs and HGFs and to β-actin (βACT) for HOBs using the 2^−ΔΔCt method.

COL1 mRNA in HGFs = assay: RT-qPCR of COL1 in HGFs; type: cell-based, human
Description: as §3

ALP mRNA in HOBs = assay: RT-qPCR of ALP in HOBs; type: cell-based, human; conditions: all concentrations (5, 10, 20 µM), compared to CTRL; not significant
Description: as §3

[7] = Kinetic of chemical hydrolysis, pH 7.0; type: physicochemical; conditions: pH 7.0, 37 °C; for Chemical hydrolysis Kobs: mean of three experiments (SD); for half-life at 18.2 µM: phosphate buffer, read-out: Chemical hydrolysis t ½ (converted)
Description: A phosphate buffer (PBS, pH 7.0) was used to estimate the chemical stability. The reaction was started by adding 1 mL of a 2 × 10^−4 M stock solution in ACN to a thermostatic (37 ± 0.5 °C) aqueous buffer solution (8 mL) and 2 mL of acetonitrile, containing 0.1% (v/v) Cremophor ELP. At established time points, samples (200 µL) were withdrawn and analyzed by HPLC. Pseudo-first-order rate constants (kobs) for the hydrolysis of the compound were calculated from the slopes of the linear plots of log (% residual compound) against time. The results are expressed as mean values of three different experiments.

[8] = tested on: human gingival fibroblasts (HGFs); assay: MTT cytocompatibility screening on HGFs, 24 h; type: cell-based; conditions: for HGFs metabolic activity / cell viability (MTT): 10 µM, vs control (DMSO) and RSV; for HGFs cell viability (MTT): vs control and RSV
[9] = 10 and 20 µM, differences not significant
[10] = 72 h, 1d and 1h 5 µM, RSV 10 µM
[11] = all concentrations (5, 10, 20 µM), 48 and 72 h

Compound	LDH release (HGFs [1]; 5 µM)	LDH release (HGFs [1]; [9])	HGFs proliferation rate (MTT) (HGFs [2]; 5 µM, 48 h)	HGFs proliferation rate (MTT) (HGFs [2]; 5 µM, 72 h)	HOBs metabolic activity / proliferation (MTT) (HOBs [3]; 5 µM, 48 h)	HOBs metabolic activity / proliferation (MTT) (HOBs [3]; 5 µM, 72 h)	HOBs metabolic activity / proliferation (MTT) (HOBs [3]; 10 µM, 48 h)	HUVECs confluence (HUVECs)	HUVECs growth / confluence (HUVECs)	HGFs morphology (HGFs [4]; 5 µM, 48 h)	HGFs confluence (HGFs [4]; 5 µM, 72 h)	HGFs morphology (HGFs [4]; [10])	ALP activity in HOBs [5]	matrix mineralization by ARS (qualitative) (HOBs [6])	eNOS mRNA expression (eNOS mRNA in HUVECs; 5 µM, 48 h, vs CTRL and RSV)	eNOS mRNA expression (eNOS mRNA in HUVECs; 5, 10, 20 µM, 72 h)	COL1 mRNA level (COL1 mRNA in HGFs; [11])	ALP mRNA level (ALP mRNA in HOBs)	Chemical hydrolysis Kobs [7]	half-life at 18.2 µM [7] [h]	other results
Cc1ccc(S(=O)(=O)Nc2ccc(/C=C/c3ccccc3)cc2)cc1 [1d, 4-Methyl-N-{4-[(E)-2-phenylvinyl]phenyl}benzenesulfonamide]	lowest LDH values	slightly increased the LDH	significant increase in proliferation rate	significantly promoted cell proliferation	enhanced the metabolic activity of osteoblasts	significantly promoted the proliferation of cells	slightly promoted cell growth	reached confluence approximately earlier	growth was more consistent	short and broad and assumed a cuboid to polygonal aspect	nearly confluent	mainly appeared as long spindles	enhanced	higher mineralization potential	increased after 48 h exposure to all 1d concentrations with statistical significance just for 5 µM	slightly promoted the enhancement of eNOS expression	increase in COL1 mRNA level	slight increase in the ALP mRNA level	0.050 (±0.004) h^−1	13.9	HGFs proliferation rate (MTT) (HGFs [2]; 10 µM, 48 h): slight increment of cell growth compared to RSV, but not in respect to the CTRL; HGFs proliferation rate (MTT) (HGFs [2]; 20 µM, 72 h): proliferative rate was lower; calcium deposition (quantitative measurement with CPC) (HOBs [6]; vs control, RSV and 1h): significantly stimulated the calcium deposition; eNOS mRNA expression (eNOS mRNA in HUVECs; 10 and 20 µM, 48 h, not statistically significant): increased; COL1 mRNA level (COL1 mRNA in HGFs; 5 µM, 48 h, compared to CTRL and RSV): significantly highest result; melting point: 182 to 183 °C; HGFs metabolic activity / cell viability (MTT) [8]: statistically augmented the cell viability; HGFs cell viability (MTT) ([8]; 20 µM): statistically significant increase in HGF viability; HGFs cell viability (MTT) ([8]; 50 µM): positively and statistically increases cell viability
CCS(=O)(=O)Nc1ccc(/C=C/c2ccccc2)cc1 [1h, N-{4-[(E)-2-Phenylvinyl]phenyl}ethanesulfonamide]	lowest LDH values	slightly increased the LDH	cell proliferation was significantly higher	cell proliferation was significantly higher	enhanced the metabolic activity of osteoblasts	significantly enhanced cell proliferation with respect to the CTRL	slightly promoted cell growth	reached confluence approximately earlier	growth was more consistent	short and broad and assumed a cuboid to polygonal aspect	nearly confluent	mainly appeared as long spindles	same ALP levels observed in the control cells and osteoblasts treated with RSV	stimulated the formation of mineralized nodules	increased eNOS expression at 5 µM	slightly promoted	increase in COL1 mRNA level	slight increase in the ALP mRNA level	0.030 (±0.001) h^−1	23.4	HOBs metabolic activity / proliferation (MTT) (HOBs [3]; 20 µM, 48 h): decreased in respect to the CTRL and RSV; melting point: 230 to 231 °C; HGFs metabolic activity / cell viability (MTT) [8]: statistically augmented the cell viability; HGFs cell viability (MTT) ([8]; 20 µM): slight increase in HGF viability; HGFs cell viability (MTT) ([8]; 50 µM): no statistically significant differences
